Data taken from patent publication US6723741B2, “Benzimidazoles and benzothiazoles and uses thereof” (Synaptic Pharmaceutical Corporation, priority 1996, dated 2004).
Read-outs that look alike come from different tables or passages of the source.

Columns and labels:
[1] = target: T1, human α2C adrenergic receptor (Homo sapiens, UniProt P18825); assay: Agonist activity: inhibition of forskolin-stimulated cAMP synthesis; assay type: cell-based; conditions: for I.A (Intrinsic Activity) Alpha-2 C: maximum activity relative to maximum activity induced by norepinephrine, human α2C; for EC50: inhibition of forskolin-stimulated cAMP, stably transfected cells expressing human α2C, read-out: pEC50 Alpha-2 C (converted)
T1 construct: The entire coding region of α2C (1383 bp), including 2 bp of 5′ UT and 400 bp of 3′ UT; expressed in transfected cells
T1 sequence (P18825 1-462): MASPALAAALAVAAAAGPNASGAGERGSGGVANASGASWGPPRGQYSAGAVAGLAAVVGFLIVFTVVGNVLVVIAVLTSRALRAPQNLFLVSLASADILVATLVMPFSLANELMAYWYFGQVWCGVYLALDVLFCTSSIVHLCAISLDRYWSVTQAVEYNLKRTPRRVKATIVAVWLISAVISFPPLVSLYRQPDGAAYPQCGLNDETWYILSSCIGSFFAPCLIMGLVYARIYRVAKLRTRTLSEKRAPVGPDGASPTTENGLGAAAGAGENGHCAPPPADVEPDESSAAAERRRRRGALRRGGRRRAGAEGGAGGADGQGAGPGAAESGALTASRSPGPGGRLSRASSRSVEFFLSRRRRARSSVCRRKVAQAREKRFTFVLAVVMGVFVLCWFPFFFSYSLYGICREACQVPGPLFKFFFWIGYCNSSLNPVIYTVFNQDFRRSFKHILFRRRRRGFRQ

[2] = target: T2, human α1A adrenergic receptor (Homo sapiens, UniProt P25100); assay: Radioligand binding assay, [3H]prazosin competition; conditions: cloned human α1A (old nomenclature; = α1D), LM(tk-) cell membranes, read-out: pKi Alpha-1 A (converted)
T2 construct: expressed in transfected cells
T2 sequence (P25100 1-572): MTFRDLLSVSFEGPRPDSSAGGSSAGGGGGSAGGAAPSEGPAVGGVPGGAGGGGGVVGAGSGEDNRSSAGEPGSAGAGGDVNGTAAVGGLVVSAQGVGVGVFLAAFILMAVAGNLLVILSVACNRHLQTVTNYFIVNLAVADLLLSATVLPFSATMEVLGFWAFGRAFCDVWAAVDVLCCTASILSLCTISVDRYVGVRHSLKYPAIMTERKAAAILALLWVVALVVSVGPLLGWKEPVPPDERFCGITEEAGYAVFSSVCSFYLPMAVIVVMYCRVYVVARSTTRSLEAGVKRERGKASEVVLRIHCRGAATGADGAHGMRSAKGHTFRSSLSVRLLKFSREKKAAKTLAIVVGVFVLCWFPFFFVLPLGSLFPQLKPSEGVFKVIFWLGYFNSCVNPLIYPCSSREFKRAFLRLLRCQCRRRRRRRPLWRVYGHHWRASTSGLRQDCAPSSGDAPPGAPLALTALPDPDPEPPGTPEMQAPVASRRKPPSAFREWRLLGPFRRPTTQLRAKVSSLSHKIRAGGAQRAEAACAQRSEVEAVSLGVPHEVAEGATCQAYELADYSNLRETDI
Experimental: Equilibrium competition binding assays were performed with membrane preparations from cultured LM(tk^−) cells stably transfected with the cloned human alpha adrenoreceptor subtypes except for α2b, which was expressed in Y-1 cells, using [^3H] prazosin for α1 receptors and [^3H] rauwolscine for α2 receptors. Further details of pharmacological evaluations of claimed compounds are described in Example 21.
The cloned human alpha-1 adrenergic receptor subtypes referred to throughout this application as α1A, α1B, and α1C have recently been assigned new subtype designations by the IUPHAR Nomenclature Committee as outlined in the 1995 Receptor and Ion Channel Nomenclature Supplement (Watson and Girdlestone, 1995). In the new nomenclature system the cloned human α1A receptor referred to herein was given the appellation “α1D,” while the cloned human α1C receptor referred to herein was given the appellation “α1A”. However, throughout this application and the supporting tables and figures the old nomenclature will be used to describe the cloned human alpha-1 adrenergic receptor subtypes. The old nomenclature is used throughout this application because stable cell lines expressing the cloned human alpha-1 adrenergic receptors were produced and deposited with the ATCC according to the Budapest Treaty for the Deposit of Microorganisms, under designations assigned before the nomenclature change.
The construct involved the ligation of partial overlapping human lymphocyte genomic and hippocampal cDNA clones: 5′ sequences were contained on a 1.2 kb SmaI-XhoI genomic fragment (the vector-derived BamHI site was used for subcloning instead of the internal insert-derived SmaI site) and 3′ sequences were contained on 1.3 kb XhoI-ClaI cDNA fragment (the ClaI site was from the vector polylinker). Stable cell lines were produced and selected as described above.
Transfected cells from culture flasks were scraped into 5 mL of 5 mM Tris-HCl, 5 mM EDTA, pH 7.5, and lysed by sonication. The cell lysates were centrifuged at 1000 rpm for 5 min at 4° C., and the supernatant was centrifuged at 30,000×g for 20 min at 4° C. The pellet was suspended in 50 mM Tris-HCl, 1 mM MgCl2, and 0.1% Ascorbic acid at pH 7.5. Binding of α2 antagonist [^3H] rauwolscine ([…]) to membrane preparations of LM(tk−) cells was done in a final volume of 0.25 mL and incubated at 37° C. for 20 min. Nonspecific binding was determined in the presence of 10 μM phentolamine. The reaction was stopped by filtration through GF/B filters using a cell harvester.

[3] = target: T3, human α1B adrenergic receptor (Homo sapiens, UniProt P35368); assay: as above
T3 construct: The entire coding region of α1B (1563 bp); expressed in transfected cells
T3 sequence (P35368 1-520): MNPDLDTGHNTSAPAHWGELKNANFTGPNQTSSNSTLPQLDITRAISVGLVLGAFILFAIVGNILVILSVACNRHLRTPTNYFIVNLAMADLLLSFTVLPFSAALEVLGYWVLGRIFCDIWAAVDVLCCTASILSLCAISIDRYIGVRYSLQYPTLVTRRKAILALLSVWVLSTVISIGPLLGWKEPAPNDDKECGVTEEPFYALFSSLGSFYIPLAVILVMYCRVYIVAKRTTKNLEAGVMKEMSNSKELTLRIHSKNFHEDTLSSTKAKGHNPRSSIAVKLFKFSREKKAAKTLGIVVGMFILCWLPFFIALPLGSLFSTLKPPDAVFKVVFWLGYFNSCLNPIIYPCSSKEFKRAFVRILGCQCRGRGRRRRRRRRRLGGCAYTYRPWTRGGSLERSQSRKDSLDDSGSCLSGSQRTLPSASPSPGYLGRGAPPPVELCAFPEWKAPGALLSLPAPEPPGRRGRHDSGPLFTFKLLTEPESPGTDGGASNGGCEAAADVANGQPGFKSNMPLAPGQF

[4] = cloned human α1B, LM(tk-) cell membranes, [3H]prazosin, read-out: pKi Alpha-1 B (converted)

## c1nc2ccc(NC3=NCCN3)cc2s1 [Example 14, 6-(2-Imidazolin-2-ylamino)benzothiazole]
[1]
  I.A (Intrinsic Activity) Alpha-2 C: 1.00
[2]
  Ki: 1700 nM
[3]
  Ki: 3630 nM

## Brc1cc(NC2=NCCN2)cc2cc[nH]c12 [Example 2, 7-Bromo-5-(2-imidazolin-2-ylamino)indole]
[1]
  EC50: 0.407 nM
  I.A (Intrinsic Activity) Alpha-2 C: 1.00
[2]
  Ki: 2.88 nM
[3]; [4]
  Ki: 26.9 nM

## CC(=O)c1cc(NC2=NCCN2)cc2cc[nH]c12 [Example 6, 7-Acetyl-5-(2-imidazolin-2-ylamino)indole]
[1]
  EC50: 40.7 nM
  I.A (Intrinsic Activity) Alpha-2 C: 0.90
[2]
  Ki: 93.3 nM
[3]; [4]
  Ki: 56.2 nM

## c1nc2cc(NC3=NCCN3)ccc2s1 [Example 13, 5-(2-Imidazolin-2-ylamino)benzothiazole]
[1]
  EC50: 0.603 nM
  I.A (Intrinsic Activity) Alpha-2 C: 1.00
[2]
  Ki: 186 nM
[3]; [4]
  Ki: 708 nM

## N#Cc1cc(NC2=NCCN2)cc2cc[nH]c12 [Example 5, 7-Cyano-5-(2-imidazolin-2-ylamino)indole]
[1]
  EC50: 0.589 nM
  I.A (Intrinsic Activity) Alpha-2 C: 1.00
[2]
  Ki: 162 nM
[3]; [4]
  Ki: 12600 nM

## c1nc2ccc(NC3=NCCS3)cc2s1 [Example 15, 6-(2-Thiazolin-2-ylamino)benzothiazole]
[1]
  I.A (Intrinsic Activity) Alpha-2 C: 0.88
[2]
  Ki: 6030 nM
[3]
  Ki: 7240 nM
